Tested on: patients with seasonal allergic rhinitis (SAR)
Assay: MP 428 two-week randomized double-blind study: Total Nasal Symptom Score (TNSS), change from baseline
Assay type: in vivo, human
Set-up: key to Change from Baseline in AM TNSS, Mean / Change from Baseline in AM TNSS, LS Mean / Change from Baseline in AM TNSS, Median: TNSS sum of 4 symptoms each 0-3 (0=none, 3=severe); change from baseline
Experimental: A two-week, randomized, double-blind study, which evaluated the effects of the co-administration of ASTELIN® (azelastine hydrochloride (HCl)) and FLONASE® (fluticasone propionate) compared to either product alone in patients with seasonal allergic rhinitis (SAR) was conducted during the 2006 Texas mountain cedar season. After a 5-day placebo lead-in period, 151 patients with moderate-to-severe allergic rhinitis symptoms were randomized to either: (1) (49 total patients) ASTELIN® (azelastine hydrochloride (HCl)) plus placebo saline nasal spray 2 sprays per nostril, 15 minutes apart, twice daily (AM & PM); (2) (50 total patients) FLONASE® (fluticasone propionate) plus placebo saline nasal spray, 2 sprays per nostril, 15 minutes apart, once daily (AM) and two sessions of placebo saline nasal spray, 2 sprays per nostril, 15 minutes apart (PM); or (3) (52 total patients) the co-administration of ASTELIN® (azelastine hydrochloride (HCl)) 2 sprays per nostril plus FLONASE® (fluticasone propionate) 2 sprays per nostril (AM), 15 minutes apart, and ASTELIN® (azelastine hydrochloride (HCl)) 2 sprays per nostril plus placebo saline nasal spray, 15 minutes apart, (PM) for a 2-week double-blind treatment period.
The primary efficacy variable was the change from baseline in the Total Nasal Symptom Score (TNSS), which comprised sneezing, itchy nose, runny nose, and nasal congestion (individual symptoms scores were assigned a value between 0 and 3, where 0=no symptoms and 3=severe symptoms). This study was not statistically designed to assess the differences between ASTELIN® and FLONASE®.

[1] = Day 9, Intent-to-Treat Population
[2] = Day 10, Intent-to-Treat Population
[3] = Day 10, Per-Protocol Population
[4] = Day 11, Intent-to-Treat Population
[5] = Day 11, Per-Protocol Population
[6] = Day 12, Intent-to-Treat Population

With `CCC(=O)O[C@]1(C(=O)SCF)[C@H](C)C[C@H]2[C@@H]3C[C@H](F)C4=CC(=O)C=C[C@]4(C)[C@@]3(F)[C@@H](O)C[C@@]21C` [Fluticasone, fluticasone propionate] the “Change from Baseline in AM TNSS, Median” value [1] was −1.83, the “Change from Baseline in AM and PM Combined TNSS, Mean” value [1] was −5.08 and the “Change from Baseline in AM and PM Combined TNSS, Median” value [1] was −4.58. For the same compound, the “Change from Baseline in PM TNSS, LS Mean” value [1] was −2.73, the “Change from Baseline in PM TNSS, Mean” value [1] was −2.69 and the “Change from Baseline in PM TNSS, Median” value [1] was −2.00. For the same compound, the “Percent Change from Baseline in AM TNSS, LS Mean” value [1] was −24.94%, the “Percent Change from Baseline in AM TNSS, Mean” value [1] was −24.52% and the “Percent Change from Baseline in AM TNSS, Median” value [1] was −21.95%. The “Percent Change from Baseline in AM and PM Combined TNSS, LS Mean” value [1] was −26.50%, the “Percent Change from Baseline in AM and PM Combined TNSS, Mean” value [1] was −25.94% and the “Percent Change from Baseline in AM and PM Combined TNSS, Median” value [1] was −23.40%. The “Percent Change from Baseline in PM TNSS, LS Mean” value [1] was −27.82%, the “Percent Change from Baseline in PM TNSS, Mean” value [1] was −27.18% and the “Percent Change from Baseline in PM TNSS, Median” value [1] was −22.22%. For the same compound, the “Change from Baseline in AM and PM Combined TNSS, LS Mean” value (Day 9, Intent-to-Treat Population, ANCOVA model) was −5.17, the “Change from Baseline in AM and PM Combined TNSS, LS Mean” value (Day 9, Per-Protocol Population) was −5.21 and the “Change from Baseline in AM and PM Combined TNSS, Mean” value (Day 9, Per-Protocol Population) was −5.18. The “Change from Baseline in AM and PM Combined TNSS, Median” value (Day 9, Per-Protocol Population) was −4.58, the “Percent Change from Baseline in AM and PM Combined TNSS, LS Mean” value (Day 9, Per-Protocol Population) was −26.65% and the “Percent Change from Baseline in AM and PM Combined TNSS, Mean” value (Day 9, Per-Protocol Population) was −26.33%. For the same compound, the “Percent Change from Baseline in AM and PM Combined TNSS, Median” value (Day 9, Per-Protocol Population) was −23.40%, the “Change from Baseline in AM TNSS, LS Mean” value [2] was −2.74 and the “Change from Baseline in AM TNSS, Mean” value [2] was −2.73. For the same compound, the “Change from Baseline in AM TNSS, Median” value [2] was −2.80, the “Change from Baseline in AM and PM Combined TNSS, Mean” value [2] was −5.61 and the “Change from Baseline in AM and PM Combined TNSS, Median” value [2] was −4.83. The “Change from Baseline in PM TNSS, LS Mean” value [2] was −2.90, the “Change from Baseline in PM TNSS, Mean” value [2] was −2.88 and the “Change from Baseline in PM TNSS, Median” value [2] was −2.60. The “Percent Change from Baseline in AM TNSS, LS Mean” value [2] was −28.09%, the “Percent Change from Baseline in AM TNSS, Mean” value [2] was −28.06% and the “Percent Change from Baseline in AM TNSS, Median” value [2] was −28.36%. For the same compound, the “Percent Change from Baseline in AM and PM Combined TNSS, LS Mean” value [2] was −28.93%, the “Percent Change from Baseline in AM and PM Combined TNSS, Mean” value [2] was −28.76% and the “Percent Change from Baseline in AM and PM Combined TNSS, Median” value [2] was −27.10%. For the same compound, the “Percent Change from Baseline in PM TNSS, LS Mean” value [2] was −29.73%, the “Percent Change from Baseline in PM TNSS, Mean” value [2] was −29.48% and the “Percent Change from Baseline in PM TNSS, Median” value [2] was −27.27%. The “Change from Baseline in AM and PM Combined TNSS, LS Mean” value (Day 10, Intent-to-Treat Population, ANCOVA model) was −5.64, the “Change from Baseline in AM and PM Combined TNSS, LS Mean” value [3] was −5.70 and the “Change from Baseline in AM and PM Combined TNSS, Mean” value [3] was −5.74. For the same compound, the “Change from Baseline in AM and PM Combined TNSS, Median” value [3] was −4.83, the “Percent Change from Baseline in AM and PM Combined TNSS, LS Mean” value [3] was −29.19% and the “Percent Change from Baseline in AM and PM Combined TNSS, Mean” value [3] was −29.26%. For the same compound, the “Percent Change from Baseline in AM and PM Combined TNSS, Median” value [3] was −27.10%, the “Change from Baseline in AM TNSS, LS Mean” value [4] was −2.52 and the “Change from Baseline in AM TNSS, Mean” value [4] was −2.49. The “Change from Baseline in AM TNSS, Median” value [4] was −2.00, the “Change from Baseline in AM and PM Combined TNSS, Mean” value [4] was −5.77 and the “Change from Baseline in AM and PM Combined TNSS, Median” value [4] was −4.83. The “Change from Baseline in PM TNSS, LS Mean” value [4] was −3.33, the “Change from Baseline in PM TNSS, Mean” value [4] was −3.29 and the “Change from Baseline in PM TNSS, Median” value [4] was −3.00. For the same compound, the “Percent Change from Baseline in AM TNSS, LS Mean” value [4] was −25.25%, the “Percent Change from Baseline in AM TNSS, Mean” value [4] was −25.02% and the “Percent Change from Baseline in AM TNSS, Median” value [4] was −18.37%. The “Percent Change from Baseline in AM and PM Combined TNSS, LS Mean” value [4] was −29.71%, the “Percent Change from Baseline in AM and PM Combined TNSS, Mean” value [4] was −29.30% and the “Percent Change from Baseline in AM and PM Combined TNSS, Median” value [4] was −27.71%. The “Percent Change from Baseline in PM TNSS, LS Mean” value [4] was −34.15%, the “Percent Change from Baseline in PM TNSS, Mean” value [4] was −33.54% and the “Percent Change from Baseline in PM TNSS, Median” value [4] was −33.33%. For the same compound, the “Change from Baseline in AM and PM Combined TNSS, LS Mean” value (Day 11, Intent-to-Treat Population, ANCOVA model) was −5.85, the “Change from Baseline in AM and PM Combined TNSS, LS Mean” value [5] was −5.89 and the “Change from Baseline in AM and PM Combined TNSS, Mean” value [5] was −5.89. For the same compound, the “Change from Baseline in AM and PM Combined TNSS, Median” value [5] was −4.83, the “Percent Change from Baseline in AM and PM Combined TNSS, LS Mean” value [5] was −29.83% and the “Percent Change from Baseline in AM and PM Combined TNSS, Mean” value [5] was −29.69%. The “Percent Change from Baseline in AM and PM Combined TNSS, Median” value [5] was −27.71%, the “Change from Baseline in AM TNSS, LS Mean” value [6] was −2.99 and the “Change from Baseline in AM TNSS, Mean” value [6] was −2.98. For the same compound, the “Change from Baseline in AM TNSS, Median” value [6] was −2.75, the “Change from Baseline in AM and PM Combined TNSS, Mean” value [6] was −6.08 and the “Change from Baseline in AM and PM Combined TNSS, Median” value [6] was −5.17. The “Change from Baseline in PM TNSS, LS Mean” value [6] was −3.13, the “Change from Baseline in PM TNSS, Mean” value [6] was −3.10 and the “Change from Baseline in PM TNSS, Median” value [6] was −3.00. The “Percent Change from Baseline in AM TNSS, LS Mean” value [6] was −30.64%, the “Percent Change from Baseline in AM TNSS, Mean” value [6] was −30.49% and the “Percent Change from Baseline in AM TNSS, Median” value [6] was −26.83%. For the same compound, the “Percent Change from Baseline in AM and PM Combined TNSS, LS Mean” value [6] was −31.31%, the “Percent Change from Baseline in AM and PM Combined TNSS, Mean” value [6] was −31.04% and the “Percent Change from Baseline in AM and PM Combined TNSS, Median” value [6] was −27.78%. The “Percent Change from Baseline in PM TNSS, LS Mean” value [6] was −32.00% and the “Percent Change from Baseline in PM TNSS, Mean” value [6] was −31.52%.

Reference: patent US8758816B2, “Compositions comprising azelastine and methods of use thereof” (priority 2004, dated 2014)
